Series [1] deals with primary human gamma delta T cells (Vγ9Vδ2 T cells). The note with it: cited from earlier work.
The subject of series [2] is RPMI-8226 cells. The experiment in a line: Proliferation assay, RPMI-8226 cells (CellQuantiBlue). Format: cell-based. To be noted: 72 hours; for IC50: RPMI-8226 cells, QB assay. The method, then: (§1) K562 cells were cultured in fresh K562 media (RPMI-1640, 10% heat-inactivated Fetalclone III, 1× penicillin/streptomycin). Daudi and RPMI-8226 cells were cultured in fresh Daudi/RPMI media (RPMI-1640, 10% heat-inactivated FBS, 1× penicillin/streptomycin). Gamma delta T cells were cultured as described previously. Briefly, cells were expanded from peripheral blood mononuclear cells in fresh T cell media (RPMI-1640, 10% heat-inactivated FBS, 1× HEPES, pyruvate, non-essential amino acids, penicillin/streptomycin, beta-mercaptoethanol) and added to 6-well plates. Cells were stimulated with test compounds for three days at concentrations indicated in the text. Cells were washed twice then cultured for another eleven days after compound removal. Human interleukin 2 (5 ng/mL) was supplemented every three days. Experiments were performed at least three times independently using at least two different blood donors.
(§2) To assess K562 proliferation, 10000 cells/well were added to 96-well plates in 100 μL K562 media in the presence of test compounds. Similarly, experiments with Daudi cells were initiated at 5000 cells/well and RPMI8226 cells initiated at 6000 cells/well. The cell concentrations were determined by prior dose response experiments to maximize proliferation rates. Cells were allowed to proliferate for 72 hours. During the last 2 hours, cells were labeled with 10 μL of CellQuantiBlue reagent and scanned with a Victor plate reader.

The test system of series [3] is Jurkat cells. As to the kind of experiment: Proliferation assay, Jurkat cells (CellQuantiBlue). The format is cell-based. The note with it: 72 hours; for IC50: Jurkat cells, QB assay. The method, then: [Worded in the source for another cell line; this cell line is reported under the same test.] as §2
Series [4] has as its system Daudi cells. The experiment in a line: Proliferation assay, Daudi cells (CellQuantiBlue). Format: cell-based. The note with it: 72 hours; for IC50: Daudi cells, QB assay. The method, then: as §1, §2
Series [5] relates to primary human gamma delta T cells (Vγ9Vδ2 T cells). The experiment in a line: Gamma delta T cell expansion from PBMCs. The format is cell-based. The note with it: for gamma delta T cell agonist activity: PBMCs, CD3 and gamma delta TCR surface staining; for EC50: 72 hours treatment. On the procedure: as §1
Total gamma delta TCR was labeled using FITC-anti-human Pan gamma delta TCR antibody and CD3 was labeled using PE-conjugated anti-human CD3 as described.
The MOCCA prodrugs were also evaluated in a functional assay of their ability to stimulate proliferation of primary human gamma delta T cells. Dose response experiments were performed with the experimental compounds—MOCCA-Me-C-HMBP and MOCCA-POM-C-HMBP. POM-Me-C-HMBP, POM2-C-HMBP, Me-C-HMBP, C-HMBP or HMBPP were used as positive controls. Unstimulated cells were used as a negative control. Cells were treated for 72 hours with test compounds, washed, then expanded for 11 additional days prior to quantification to assess proliferation.

In series [6] the test system is K562 cells. As to the kind of experiment: Proliferation assay, K562 cells (CellQuantiBlue). Format: cell-based. The note with it: 72 hours; for IC50: K562 cells, QB assay. On the procedure: as §1, §2
Series [7] concerns K562 cells. The experiment in a line: Quantification of cellular uptake in K562 cells. The format is cell-based. To be noted: K562 cells in PBS, 10 μM. On the procedure: (§3) Compounds were exposed to PBS, K562 cells in PBS, or 50% pooled human plasma in PBS. K562 cells were used at a concentration of 1 million per mL. The fluorescence was detected using a Victor X5 plate reader with excitation at 355 nm and emissions at 405. Compounds were mixed with each biological matrix to a final concentration of 10 μM on ice. A baseline reading was measured. Compounds were incubated for one hour at 37° C. and subsequent readings were taken every 15 minutes.
The compounds were then used to examine rates of internalization into K562 cells. […] That is, within hours, effectively all of the drug can pass through the cells.

The nature of series [8]: Plasma metabolism by loss of fluorescence (spectrophotometry). The format is in vitro ADME, human. The method, then:
as §3
This assay was then adapted to a 384-well-plate format for use in a plate reader equipped with a 355/40 nm excitation filter and a 405/10 nm emission filter. As expected, the fluorescence intensity of MOCCA-Me-C-HMBP in PBS was much higher than that of the free MOCCA group in PBS (FIG. 4B). Additionally, the fluorescence of the free MOCCA group was further reduced when incubated in human plasma (FIG. 4C). […] Therefore, the esterase-mediated hydrolysis of MOCCA-Me-C-HMBP could be readily assessed by quantification of the two-step (release followed by quenching) loss of fluorescence following exposure to various biological matrices.
(§4) The prodrugs and the MOCCA protecting group were stable in PBS (FIG. 5A). […] The half-life was determined to be 7 minutes in this assay. […] In order to confirm that the loss of fluorescence of MOCCA-Me-C-HMBP was indeed due to hydrolysis of the MOCCA-phosphonate ester, the end products were extracted and analyzed by thin layer chromatography. MOCCA-Me-C-HMBP was fully hydrolyzed to yield the free MOCCA group in the presence of human plasma within 40 minutes (FIG. 5D). Loss of the prodrug occurred at the same time as the appearance of the MOCCA free acid.

Series [9] is described as follows: Plasma metabolism by thin layer chromatography. The format is in vitro ADME. To be noted: human plasma. The method, then: Compounds were exposed to cells, plasma, media, or PBS as indicated in the text in 100 μL volumes. Compounds were extracted from all biological mixtures using 200 μL of organic solvent containing 95% dichloromethane, 5% ethanol, and 0.25% glacial acetic acid. Extracts were separated by normal phase […] using 95% dichloromethane, 5% ethanol, and 0.25% glacial acetic acid as the mobile phase. Compounds were visualized under UV light.
as §4

Series [10] is described as follows: pH dependence of fluorescence intensity. The format is physicochemical. The note with it: aqueous solutions, pH 6 vs pH 3. The text has this:
The use of the MOCCA prodrugs as probes with which to determine rates of biological deprotection (FIG. 4) was examined. All three compounds were readily detected by spectrophotometry with excitation maxima of 360 nm and emission maxima of 410 nm in aqueous solutions. Importantly, the fluorescence intensity of the free MOCCA group was strongly dependent upon pH of the solvent (FIG. 4A), correlating with the expected protonation of the carboxylic acid. At pH 6 the intensity of the free MOCCA group was less than 10% of its intensity at pH 3. At the same time, the fluorescence intensity of the MOCCA prodrugs was not pH dependent. Taken together, the MOCCA prodrugs would be expected to rapidly lose fluorescence intensity during metabolism at neutral pH, as the free MOCCA group is released from the prodrug and remains in the deprotonated form.

[11] abbreviates: Reference: Hsiao et al., read-out: EC50 for T cell expansion.
[12] abbreviates: dose response curves, read-out: EC50, gamma delta T cell proliferation.

One may read the IC50 as the midpoint of a concentration-inhibition curve. Low readings indicate higher potency, high ones lower potency. The term half-life denotes the time needed for the level to fall by half in the phase considered.

“Also recorded” adds a separate entry of the source. Where two headings read alike, the source gives them in different places. A value given as a limit tells only on which side of the number the result lay.

Consider `COP(=O)(CC/C=C(\C)CO)OCOC(=O)C(C)(C)C` (stereo not drawn) [POM-Me—C-HMBP], for which the EC50 in series [1] (setting [11]) is 0.52 µM; in [1] (published value, Hsiao et al. 2014, read-out: published EC50, gamma delta T cell proliferation) it was 0.5 µM. For the same compound, the IC50 in series [2], in series [3], in series [4] and in series [6] was above 100 µM each time. For the same compound, the “gamma delta T cell agonist activity” value in series [5] is recorded as “not statistically different from that of POM-Me-C-HMBP”.

In the case of `C/C(=C\CCP(=O)(OCOC(=O)C(C)(C)C)OCOC(=O)C(C)(C)C)CO` [POM2-C-HMBP (7)], in series [1] (published value, unit inferred, read-out: published EC50 value, gamma delta T cell proliferation), the EC50 is 0.0054 µM. The IC50 in [2] was 44 µM; in series [3], above 100 µM; in series [4] it was 58 µM; in series [6] it was above 100 µM.

In the case of `COc1ccc2cc(C(=O)OCOP(=O)(CC/C=C(\C)CO)OCOC(=O)C(C)(C)C)c(=O)oc2c1` (stereo not drawn) [MOCCA-POM (9)], the IC50 in series [2] was 43 µM; in series [3], 53 µM; in [4], 56 µM; in [6], above 100 µM. The “gamma delta T cell agonist activity” value in series [5] is given as “functioned as a gamma delta T cell agonist”. Also, the EC50 in series [5] (setting [12]) came to 0.0039 µM.

Consider `C1CN2CCN1CC2.COP(=O)(O)CC/C=C(\C)CO` [Me—C-HMBP (4)], for which the IC50 in [2], in series [3], in series [4] and in series [6] was above 100 µM throughout. Also, the EC50 in series [5] (setting [12]) was 23 µM.

For `C/C(=C\CCP(=O)(O)O)CO` [C-HMBP], the EC50 in [1] (setting [11]) was 4 µM. Moreover, the IC50 in series [2], in [3], in series [4] and in series [6] was above 100 µM each time.

Take `COc1ccc2cc(C(=O)OCOP(=O)(CC/C=C(\C)CO)OC)c(=O)oc2c1` (stereo not drawn) [MOCCA-Me—C-HMBP (5)]: the IC50 was 64 µM in [2] (Homo sapiens), above 100 µM in series [3] (Homo sapiens), above 100 µM in series [4] (Homo sapiens) and above 100 µM in series [6] (Homo sapiens). For the same compound, the “cellular uptake / cellular metabolism in K562 cells” value in [7] is recorded as “faster than that of MOCCA-POM-C-HMBP”. For the same compound, the “order of decay kinetics in plasma” value in series [8] (50% human plasma in PBS, spectrophotometry) is on record as 2nd order kinetics. Moreover, the half-life at 10 μM in series [8] (50% pooled human plasma in PBS, 50% human plasma in PBS, spectrophotometry) was 7 min. The “relative rate of plasma metabolism” value in series [8] (human plasma) was “metabolized more rapidly relative to the bulkier MOCCA-POM-C-HMBP”. Further, the EC50 in series [5] (Homo sapiens, T-cell, 11 additional days expansion, Reference: none, read-out: EC50 for T cell expansion) was 0.018 µM; in [5] (Homo sapiens, T-cell, dose response curves, read-out: EC50, gamma delta T cell proliferation) it was 0.018 µM. The “gamma delta T cell agonist activity” value in series [5] is “functioned as a gamma delta T cell agonist; also recorded: potent gamma delta T cell agonist”. For the same compound, the “increase in activity of the MOCCA protected compound over Me-C-HMBP” value in series [5] (ratio of EC50 values) was determined as 1300 fold. Also, the “time to full hydrolysis to the free MOCCA group” value in [9] is at most 40 min. Moreover, the half-life in series [9] (read-out: half-life of enzymatic release) is 7.8 min.

As for `COc1ccc2cc(C(=O)O)c(=O)oc2c1` [MOCCA (1), 7-Methoxy-2-oxo-2H-chromene-3-carboxylic acid], in series [2] (concentrations up to 100 μM), the “cellular toxicity, RPMI-8226” value was “no cellular toxicity”. For the same compound, the IC50 in series [2] (Homo sapiens), in series [3] (Homo sapiens), in series [4] (Homo sapiens) and in [6] (Homo sapiens) was above 100 µM in each case. Besides, in [3] (concentrations up to 100 μM), the “cellular toxicity, Jurkat” value is on record as “no cellular toxicity”. Moreover, the “cellular toxicity, Daudi” value in series [4] (concentrations up to 100 μM) was “no cellular toxicity”. The “fluorescence intensity at pH 6 relative to intensity at pH 3” value in [10] is reported as “less than 10%”. Besides, in series [6] (concentrations up to 100 μM), the “cellular toxicity, K562” value is listed as “no cellular toxicity”.

Values taken from patent US10814006B2, “Fluorescent prodrugs” (UNIVERSITY OF IOWA RESEARCH FOUNDATION, priority 2015, dated 2020).
